Reference: ChEMBL document CHEMBL4811240, “Discovery of N-substituted sulfamoylbenzamide derivatives as novel inhibitors of STAT3 signaling pathway based on Niclosamide” (Eur J Med Chem, 2021)

Legend:
[1] = target: Fibroblast growth factor receptor 3 (Homo sapiens) (UniProt P22607); experiment: Inhibition of FGFR3 (436 to 806 residues) (unknown origin) expressed in Sf21 cells at 10 uM preincubated for 10 mins followed by peptide substrate addition relative to control
[2] = target: Serine/threonine-protein kinase PLK1 (Homo sapiens) (UniProt P53350); experiment: Inhibition of full length PLK1 (1 to 603 residues) (unknown origin) expressed in Sf21 at 10 uM preincubated for 10 mins followed by peptide substrate addition relative to control
Chain of Serine/threonine-protein kinase PLK1 (Homo sapiens) (P53350 whole entry, the tested form may be a part): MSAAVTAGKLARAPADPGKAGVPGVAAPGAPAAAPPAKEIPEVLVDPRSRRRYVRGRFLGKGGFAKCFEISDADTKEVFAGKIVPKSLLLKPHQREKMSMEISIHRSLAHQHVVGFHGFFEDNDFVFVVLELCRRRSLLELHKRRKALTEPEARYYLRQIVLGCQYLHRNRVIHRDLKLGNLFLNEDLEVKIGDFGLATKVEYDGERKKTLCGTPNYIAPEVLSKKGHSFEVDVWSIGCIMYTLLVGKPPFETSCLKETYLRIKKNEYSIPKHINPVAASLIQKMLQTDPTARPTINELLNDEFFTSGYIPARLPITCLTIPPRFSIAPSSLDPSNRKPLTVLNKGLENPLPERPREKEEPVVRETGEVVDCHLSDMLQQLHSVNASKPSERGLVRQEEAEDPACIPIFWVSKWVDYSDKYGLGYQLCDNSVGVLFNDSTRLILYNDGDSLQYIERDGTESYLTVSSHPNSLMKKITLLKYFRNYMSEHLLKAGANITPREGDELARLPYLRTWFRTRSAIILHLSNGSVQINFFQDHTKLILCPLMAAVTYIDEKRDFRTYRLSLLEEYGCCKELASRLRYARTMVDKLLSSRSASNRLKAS

[3] = target: Receptor-type tyrosine-protein kinase FLT3 (Homo sapiens) (UniProt P36888); experiment: Inhibition of recombinant human His-tagged FLT3 expressed in baculovirus expression system at 10 uM preincubated for 10 mins followed by peptide substrate addition relative to control
Chain of Receptor-type tyrosine-protein kinase FLT3 (Homo sapiens) (P36888 whole entry): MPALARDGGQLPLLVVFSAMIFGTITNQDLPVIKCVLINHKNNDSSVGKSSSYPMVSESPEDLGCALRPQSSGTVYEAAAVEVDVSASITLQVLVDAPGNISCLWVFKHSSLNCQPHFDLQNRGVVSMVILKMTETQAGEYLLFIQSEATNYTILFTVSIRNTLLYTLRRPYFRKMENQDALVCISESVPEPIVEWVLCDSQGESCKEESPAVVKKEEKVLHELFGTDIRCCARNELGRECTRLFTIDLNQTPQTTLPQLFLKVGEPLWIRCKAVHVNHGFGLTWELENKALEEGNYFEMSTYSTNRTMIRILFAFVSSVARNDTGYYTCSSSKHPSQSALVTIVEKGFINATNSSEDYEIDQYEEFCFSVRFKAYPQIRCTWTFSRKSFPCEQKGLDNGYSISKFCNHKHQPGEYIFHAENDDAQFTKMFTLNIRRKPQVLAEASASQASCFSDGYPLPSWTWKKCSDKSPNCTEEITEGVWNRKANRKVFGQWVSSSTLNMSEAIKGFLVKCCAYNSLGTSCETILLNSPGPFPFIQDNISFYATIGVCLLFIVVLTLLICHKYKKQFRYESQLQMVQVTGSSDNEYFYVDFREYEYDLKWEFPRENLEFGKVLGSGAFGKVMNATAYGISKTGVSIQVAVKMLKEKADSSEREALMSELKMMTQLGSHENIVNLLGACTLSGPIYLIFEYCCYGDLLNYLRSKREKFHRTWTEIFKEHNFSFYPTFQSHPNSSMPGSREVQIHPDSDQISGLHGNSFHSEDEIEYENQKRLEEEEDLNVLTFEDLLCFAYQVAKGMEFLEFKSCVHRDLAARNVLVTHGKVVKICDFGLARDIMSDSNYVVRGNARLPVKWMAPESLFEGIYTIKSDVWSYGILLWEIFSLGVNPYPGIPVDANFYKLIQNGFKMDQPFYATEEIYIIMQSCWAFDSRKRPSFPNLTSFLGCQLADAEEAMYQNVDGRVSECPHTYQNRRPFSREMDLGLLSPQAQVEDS

Chain of Fibroblast growth factor receptor 3 (Homo sapiens) (P22607 23-806 limits assumed): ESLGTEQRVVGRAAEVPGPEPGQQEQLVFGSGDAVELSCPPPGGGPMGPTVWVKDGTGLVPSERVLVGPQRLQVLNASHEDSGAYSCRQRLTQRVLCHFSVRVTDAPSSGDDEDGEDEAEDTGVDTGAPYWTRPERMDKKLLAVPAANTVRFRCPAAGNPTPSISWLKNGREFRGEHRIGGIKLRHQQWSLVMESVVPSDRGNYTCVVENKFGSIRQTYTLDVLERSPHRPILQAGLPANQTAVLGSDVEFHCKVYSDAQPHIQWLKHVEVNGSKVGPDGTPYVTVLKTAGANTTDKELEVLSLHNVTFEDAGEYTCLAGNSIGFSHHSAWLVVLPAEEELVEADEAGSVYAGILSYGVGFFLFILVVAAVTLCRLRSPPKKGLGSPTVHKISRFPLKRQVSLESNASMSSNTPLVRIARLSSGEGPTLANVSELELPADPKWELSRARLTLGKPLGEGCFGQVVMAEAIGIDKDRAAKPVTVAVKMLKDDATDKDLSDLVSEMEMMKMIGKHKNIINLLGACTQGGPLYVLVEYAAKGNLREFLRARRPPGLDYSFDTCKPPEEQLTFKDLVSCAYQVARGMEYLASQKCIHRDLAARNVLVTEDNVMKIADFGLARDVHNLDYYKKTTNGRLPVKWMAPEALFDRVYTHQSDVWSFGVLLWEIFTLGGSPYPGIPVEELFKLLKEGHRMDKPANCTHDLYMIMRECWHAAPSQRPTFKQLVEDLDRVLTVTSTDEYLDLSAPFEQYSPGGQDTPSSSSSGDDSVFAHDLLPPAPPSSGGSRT

`CC(C)(C)OC(=O)c1ccc(NC(=O)c2ccc(Cl)c(S(N)(=O)=O)c2)cc1` was tested, and the inhibition [1] was 1.25%, the inhibition [2] was 5.19% and the inhibition [3] was 10.2%.
